Peptide text beside a SMILES is read from it.
Assays:
ACE2 = target: T1, ACE2 (Mus musculus, UniProt Q8R0I0); experiment: ACE2 active fluorescence detection kit, influence of SCOL polypeptide on ACE2 enzyme activity in mice liver tissue supernatant; assay type: biochemical
T1 construct: taking 50 mg mice liver tissue, adding 500 μL lysis solution to perform the homogenization treatment; from tissue; host or cells: mouse liver tissue homogenate supernatant
Experimental: Detection was performed by using Biyuntian ACE2 active fluorescence detection kit; the principle was as follows. […] When the substrate was fully cut by the ACE2, two ends of the polypeptide were separated, two fluorophores were separated, which led to detection of the fluorescence, such that the enzyme activity of the ACE2 protein enzyme can be sensitively detected by the fluorescence detection.
(1) preparation of samples: taking 50 mg mice liver tissue, adding 500 μL lysis solution to perform the homogenization treatment, centrifuging at 4° C. under 12000×g for 5 min, taking the supernatant for next step; […]
(3) adding 2 μL substrates in the 96 hole plate, individually adding 2.2 μL with concentration of 0.004, 0.008, 0.012, 0.016, 0.02 μg/μL of the total concentration in the PCR tubes, adding 8.8 μL supernatant sample in step (1), adding 96.8 μL buffer; and adding 11 μL lysis solution and 96.8 μL buffer in a blank control, mixing, sucking above 98 μL solution by a volley gun and adding to the 96 hole plate with substrates. Performing fluorescence detection by a fluorescence microplate reader after mixing, in particular, the setting temperature was at 37° C., the excitation wavelength was 325 nm, and the emission wavelength was 393 nm. […]

[1] = target: T2, novel coronavirus S protein-ACE2 protein binding (Homo sapiens, UniProt Q9BYF1); experiment: biochemical
T2 construct: purchased RayBio
T2 sequence (Q9BYF1 18-740): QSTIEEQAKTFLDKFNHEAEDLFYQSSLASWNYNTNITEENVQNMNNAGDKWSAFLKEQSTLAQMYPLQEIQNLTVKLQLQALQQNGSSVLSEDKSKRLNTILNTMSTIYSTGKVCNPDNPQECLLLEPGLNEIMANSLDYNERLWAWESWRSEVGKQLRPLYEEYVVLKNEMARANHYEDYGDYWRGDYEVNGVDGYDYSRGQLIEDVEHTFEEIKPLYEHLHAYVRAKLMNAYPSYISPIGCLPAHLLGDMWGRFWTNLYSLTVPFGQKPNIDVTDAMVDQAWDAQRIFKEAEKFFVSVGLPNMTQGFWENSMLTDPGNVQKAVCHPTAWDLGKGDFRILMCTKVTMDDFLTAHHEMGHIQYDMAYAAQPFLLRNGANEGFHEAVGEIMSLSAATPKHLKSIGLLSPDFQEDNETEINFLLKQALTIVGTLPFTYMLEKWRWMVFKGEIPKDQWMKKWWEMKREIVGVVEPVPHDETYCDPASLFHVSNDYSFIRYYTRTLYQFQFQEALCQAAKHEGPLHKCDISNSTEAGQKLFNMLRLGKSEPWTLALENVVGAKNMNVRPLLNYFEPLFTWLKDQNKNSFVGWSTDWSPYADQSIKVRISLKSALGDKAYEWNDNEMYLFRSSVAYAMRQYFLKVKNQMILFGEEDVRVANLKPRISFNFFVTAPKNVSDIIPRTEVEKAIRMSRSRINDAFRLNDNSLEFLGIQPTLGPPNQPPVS

T1 sequence (Q8R0I0 18-805): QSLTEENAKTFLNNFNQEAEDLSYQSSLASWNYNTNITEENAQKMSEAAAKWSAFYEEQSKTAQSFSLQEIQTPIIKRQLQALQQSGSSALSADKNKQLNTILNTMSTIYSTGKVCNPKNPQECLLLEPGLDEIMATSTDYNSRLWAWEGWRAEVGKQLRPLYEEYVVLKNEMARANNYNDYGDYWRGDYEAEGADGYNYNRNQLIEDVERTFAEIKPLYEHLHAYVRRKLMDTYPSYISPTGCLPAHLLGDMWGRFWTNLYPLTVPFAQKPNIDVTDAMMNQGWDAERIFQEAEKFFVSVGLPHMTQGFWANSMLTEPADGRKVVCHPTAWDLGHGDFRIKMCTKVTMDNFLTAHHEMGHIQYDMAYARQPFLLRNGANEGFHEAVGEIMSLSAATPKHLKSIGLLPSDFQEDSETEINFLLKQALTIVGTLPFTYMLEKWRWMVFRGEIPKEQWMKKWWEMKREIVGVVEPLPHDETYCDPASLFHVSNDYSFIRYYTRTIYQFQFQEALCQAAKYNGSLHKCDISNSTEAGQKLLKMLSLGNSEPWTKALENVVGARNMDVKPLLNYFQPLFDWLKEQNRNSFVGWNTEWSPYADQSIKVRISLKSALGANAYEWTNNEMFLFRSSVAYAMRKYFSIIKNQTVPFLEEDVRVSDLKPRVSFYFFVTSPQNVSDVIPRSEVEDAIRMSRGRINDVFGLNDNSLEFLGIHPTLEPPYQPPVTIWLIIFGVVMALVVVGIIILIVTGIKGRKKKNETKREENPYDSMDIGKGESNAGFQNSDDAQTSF

SMILES: CC[C@H](C)[C@H](N)C(=O)N1CCC[C@H]1C(=O)N[C@@H](CO)C(=O)N[C@H](C(=O)N[C@H](C(=O)N1CCC[C@H]1C(=O)N[C@@H](Cc1ccccc1)C(=O)N1CCC[C@H]1C(=O)N[C@@H](CO)C(=O)N[C@H](C(=O)N[C@H](C(=O)N[C@H](C(=O)N[C@@H](C)C(=O)N[C@H](C(=O)N[C@H](C(=O)N[C@H](C(=O)N[C@@H](CCSC)C(=O)O)[C@@H](C)O)[C@@H](C)O)[C@@H](C)O)C(C)C)[C@@H](C)O)[C@@H](C)O)[C@@H](C)O)[C@@H](C)O [SCOL peptide, Ile-Pro-Ser-Thr-Thr-Pro-Phe-Pro-Ser-Thr-Thr-Val-Ala-Thr-Thr-Thr-Met] (H-IPSTTPFPSTTVATTTM-OH; N-terminus and C-terminus assumed)
- activity of the ACE2 in the samples with the increase of the SCOL polypeptide concentration (ACE2; 0.004-0.02 μg/μL): increasing trend
- highest ACE2 activity relative to the initial activity (ACE2; SCOL polypeptide concentration 0.02 μg/μL, 37° C.): 3.76 times
- effect on S protein-ACE2 binding compared with the control group [1]: inhibiting effect
- inhibition at 800 µg/mL ([1]; read-out: highest inhibition rate of binding between S protein and ACE2): 65%
